Molecules are shown by their SMILES. Entries after “also recorded” stand apart in the source; their conditions may differ. Like-named read-outs stand apart in the source and are kept apart here.

The record followed here is patent US4892887A, “N,N'-bis(sulfonyl)hydrazines having antineoplastic activity” (Yale University, priority 1988, dated 1990).

One data set deals with B16 melanoma. The data set can be described thus: Survival time of mice bearing the B16 melanoma. The format is in vivo, mouse (C57B1 mice). As to conditions: for Max. % T/C: Table IV, B16, at optimum effective daily dose; for Av. Change in wt., %: at optimum effective daily dose, B16 mice; for Max. % T/C B16 Melanoma: Table V.
A further data set has as its system L1210 leukemia. The data set can be described thus: Survival time of mice bearing the L1210 leukemia. The format is in vivo, mouse (CDF-1 mice). As to conditions: for Av. Change wt. %: L1210 mice; for response vs control in vivo at 50 mg/kg / response vs control in vivo at 100 mg/kg / response vs control in vivo at 150 mg/kg: Mus musculus, read-out: % T/C; for Max. % T/C L1210 Leukemia: Table V. The text has this:
The ascites cell forms of the L1210 leukemia, Sarcoma 180 and P388 leukemia were propagated in CDF-1 mice. […] Mice were weighed during the course of the experiments, and the percentage change in body weight from the onset to termination of therapy was used as an indication of host toxicity.
Each value represents the average of 5 animals per group.

Where [1] appears, read: 50 mg/kg once daily for six days.
Where [2] appears, read: 100 mg/kg once daily for six days.
Setting [3] is: 150 mg/kg once daily for six days.
The mark [4] stands for this setting: 144 h, 50 mg/kg once daily for six days, L1210.
Where [5] appears, read: 144 h, 100 mg/kg once daily for six days, L1210.

Method for B16 melanoma: This tumor was propagated in C57B1mice. Transplantation was carried out by removing tumors from donor mice bearing 14-day subcutaneous tumor growths. The tissue was fragmented to make a well-dispersed cellular suspension and diluted with Fischer's medium without serum so that one gram of tissue was suspended in 5 ml of solution. A portion (0.2 ml) of the resulting cell suspension was injected intraperitoneally into each recipient animal. All compounds were administered over a wide range of dosage levels by intraperitoneal injection, beginning 24 hours after tumor implantation, once daily for 6 consecutive days. The test compounds were injected as fine suspensions following homogenization in 2 to 3 drops of 20% aqueous Tween 80 and then made up to volume with isotonic saline. […] Mice were weighed during the course of the experiments, and the percent change in body weight from onset to termination of therapy was used as an indication of drug toxicity. Determination of the sensitivity of neoplasms to these agents was based on the prolongation of survival time afforded by the drug treatments.
^a Administered once daily for six consecutive days, beginnign 24
hours after tumor transplanation, with 5 animals being used per group.
^b Average change in body weight from onset to termination of therapy
^c % T/C = average survival time of treated/control animals ×
100. Each value represents the average of 5 animals per group.

`Cc1ccc(S(=O)(=O)N(C)NS(=O)(=O)Cc2ccccc2)cc1` [Compound 6, N'-benzylsulfonyl-N-methyl-N-(p-toluenesulfonyl)hydrazine]: in the data set on B16 melanoma, the “Max. % T/C” value turned out to be 172 % T/C. The “Av. Change in wt., %” value in the data set on B16 melanoma is listed as -2.4%. In addition, the “Average Survival Time of Treated Animals, days ± SE” value (shortened to “Average Survival Time … days ± SE”) was 16.0 ± 3.4 days with L1210 leukemia (setting [1]), 12.6 ± 0.8 days in the data set with L1210 leukemia (setting [2]) and 14.6 ± 1.9 days in the data set with L1210 leukemia (setting [3]). In addition, the “Av. Change wt. %” value in the data set with L1210 leukemia (setting [1]) was “+10.8%”; with L1210 leukemia (setting [2]) it was “+2.4%”; in the data set on L1210 leukemia (setting [3]) it was -4.3%. Besides, the response vs control in vivo at 50 mg/kg with L1210 leukemia (setting [4]) was 174%. Also, the response vs control in vivo at 100 mg/kg with L1210 leukemia (setting [5]) was 137%. Besides, the response vs control in vivo at 150 mg/kg in the data set with L1210 leukemia (144 h, 150 mg/kg once daily for six days, L1210) is 159%. Further, the “activity against the L1210 leukemia (in words)” value with L1210 leukemia (mouse, in vivo) is “comparable to that of compounds 1-3 and 5; also recorded: relatively high level of activity”. Also, the “increase in survival time of mice bearing the L1210 leukemia” value in the data set with L1210 leukemia (optimal daily dosage level) is listed as 74%. On to `CN(NS(=O)(=O)c1ccc2ccccc2c1)S(=O)(=O)c1ccc2ccccc2c1` [Compound 11, Nmethyl-N,N'bis(2-naphthalenesulfonyl)hydrazine], for which, in the data set on B16 melanoma, the “Max. % T/C” value is 164 % T/C and the “Av. Change in wt., %” value is given as “+4.6%”. In the data set on L1210 leukemia (setting [1]), the “Average Survival Time … days ± SE” value was found to be 11.4 ± 1.1 days and the “Av. Change wt. %” value is on record as “+6.9%”. Further, in the data set with L1210 leukemia (setting [2]), the “Average Survival Time … days ± SE” value was determined as 10.2 ± 0.4 days and the “Av. Change wt. %” value is given as “+3.0%”. Besides, in the data set on L1210 leukemia (setting [3]), the “Average Survival Time … days ± SE” value is on record as 14.0 ± 2.3 days and the “Av. Change wt. %” value is -3.3%. The response vs control in vivo at 50 mg/kg with L1210 leukemia (setting [4]) stood at 127%. In the data set with L1210 leukemia (setting [5]), the response vs control in vivo at 100 mg/kg was determined as 113%. The response vs control in vivo at 150 mg/kg in the data set with L1210 leukemia (L1210, 144 h) was 156%.

Regarding `Cc1ccc(S(=O)(=O)NN(C)S(=O)(=O)c2ccccc2)cc1` [Compound 14], in the data set with B16 melanoma, the “Max. % T/C B16 Melanoma” value amounted to 178 % T/C. Also, in the data set with L1210 leukemia, the “Max. % T/C L1210 Leukemia” value is reported as 153 % T/C.

`COc1ccc(S(=O)(=O)NN(C)S(=O)(=O)c2ccccc2)cc1` [Compound 15]: the “Max. % T/C B16 Melanoma” value in the data set on B16 melanoma was determined as 191 % T/C. In addition, in the data set with L1210 leukemia, the “Max. % T/C L1210 Leukemia” value worked out at 136 % T/C. As for `CN(NS(=O)(=O)c1ccc(Cl)cc1)S(=O)(=O)c1ccccc1` [Compound 16], the “Max. % T/C B16 Melanoma” value with B16 melanoma is listed as 148 % T/C. Moreover, the “Max. % T/C L1210 Leukemia” value with L1210 leukemia was 122 % T/C.

As for `CN(NS(=O)(=O)c1ccc2ccccc2c1)S(=O)(=O)c1ccccc1` [Compound 18], in the data set on B16 melanoma, the “Max. % T/C B16 Melanoma” value turned out to be 181 % T/C. On to `CN(NS(=O)(=O)c1ccc(Br)cc1)S(=O)(=O)c1ccccc1` [Compound 19], for which the “Max. % T/C B16 Melanoma” value in the data set with B16 melanoma is 187 % T/C. Turning to `Cc1ccc(S(=O)(=O)N(C)NS(=O)(=O)c2ccc(Br)cc2)cc1` [Compound 20, N'-(p-bromobenzenesulfonyl)-N-methyl-N-(p-toluenesulfonyl)hydrazine], the “Max. % T/C B16 Melanoma” value with B16 melanoma amounted to 161 % T/C. Further, the “Max. % T/C L1210 Leukemia” value in the data set with L1210 leukemia is on record as 169 % T/C. For the compound `Cc1ccc(S(=O)(=O)N(C)NS(=O)(=O)c2ccc3ccccc3c2)cc1` [Compound 21, N'-(2-naphthalenesulfonyl)-N-methyl-N-(p-toluenesulfonyl)hydrazine], the “Max. % T/C L1210 Leukemia” value with L1210 leukemia is recorded as 134 % T/C. Consider `Cc1ccc(S(=O)(=O)N(C)NS(=O)(=O)c2ccc([N+](=O)[O-])cc2)cc1` [Compound 22], for which the “Max. % T/C B16 Melanoma” value in the data set with B16 melanoma came out at 192 % T/C. For the compound `COc1ccc(S(=O)(=O)N(C)NS(=O)(=O)c2ccccc2)cc1` [Compound 23], the “Max. % T/C B16 Melanoma” value in the data set on B16 melanoma turned out to be 151 % T/C. In addition, the “Max. % T/C L1210 Leukemia” value in the data set with L1210 leukemia came to 178 % T/C. As to `COc1ccc(S(=O)(=O)N(C)NS(=O)(=O)c2ccc(Cl)cc2)cc1` [Compound 24, N'-(p-chlorobenzenesulfonyl)-N-(p-methoxybenzene-sulfonyl)-N-methylhydrazine], the “Max. % T/C B16 Melanoma” value in the data set with B16 melanoma is 170 % T/C. Turning to `COc1ccc(S(=O)(=O)N(C)NS(=O)(=O)c2ccc(Br)cc2)cc1` [Compound 25], the “Max. % T/C B16 Melanoma” value in the data set on B16 melanoma is 205 % T/C. In the data set with L1210 leukemia, the “Max. % T/C L1210 Leukemia” value was 134 % T/C. Regarding `COc1ccc(S(=O)(=O)N(C)NS(=O)(=O)c2ccc3ccccc3c2)cc1` [Compound 27], the “Max. % T/C B16 Melanoma” value with B16 melanoma was 163 % T/C.

Turning to `COc1ccc(S(=O)(=O)N(C)NS(=O)(=O)Cc2ccccc2)cc1` [Compound 28], the “Max. % T/C B16 Melanoma” value in the data set on B16 melanoma came out at 160 % T/C. Moreover, the “Max. % T/C L1210 Leukemia” value in the data set with L1210 leukemia is 152 % T/C. `CN(NS(=O)(=O)C=Cc1ccccc1)S(=O)(=O)c1ccc(Cl)cc1` [Compound 34]: in the data set on B16 melanoma, the “Max. % T/C B16 Melanoma” value is 143 % T/C. Consider `CCS(=O)(=O)NN(C)S(=O)(=O)c1ccc(Cl)cc1` [Compound 36], for which, in the data set with B16 melanoma, the “Max. % T/C B16 Melanoma” value worked out at 164 % T/C. Take `CN(NS(=O)(=O)c1ccccc1)S(=O)(=O)c1ccc(Br)cc1` [Compound 37, N'-benzenesulfonyl-N-(p-bromobenzenesulfonyl)-N-methylhydrazine]: in the data set on B16 melanoma, the “Max. % T/C B16 Melanoma” value is given as 160 % T/C.

For `Cc1ccc(S(=O)(=O)NN(C)S(=O)(=O)c2ccc(Br)cc2)cc1` [Compound 38, N-(p-bromobenzenesulfonyl)-N-methyl-N'-(p-toluenesulfonyl)hydrazine], the “Max. % T/C L1210 Leukemia” value with L1210 leukemia is 127 % T/C. Consider `CN(NS(=O)(=O)c1ccc(Cl)cc1)S(=O)(=O)c1ccc(Br)cc1` [Compound 40, N-(p-bromobenzenesulfonyl)-N'-(p-chlorobenzenesulfonyl)-N-methylhydrazine], for which the “Max. % T/C B16 Melanoma” value with B16 melanoma is given as 145 % T/C. The same measure, in the same setting: as for `CN(NS(=O)(=O)c1ccc2ccccc2c1)S(=O)(=O)c1ccc(Br)cc1` [Compound 42, N-(p-bromobenzenesulfonyl)-N-methyl-N-(2-naphthalenesulfonyl)hydrazine], the figure is 146 % T/C; as for `CN(NS(=O)(=O)C=Cc1ccccc1)S(=O)(=O)c1ccc(Br)cc1` [Compound 43, N-(p-bromobenzenesulfonyl)-N-methyl-N'-(2-styrenesulfonyl)hydrazine], 178 % T/C; as for `CN(NS(C)(=O)=O)S(=O)(=O)c1ccc(Br)cc1` [Compound 44], 221 % T/C. In the case of `Cc1ccc(S(=O)(=O)NN(C)S(=O)(=O)c2ccc3ccccc3c2)cc1` [Compound 46, N-(N'-naphthalenesulfonyl)-N-methyl-N'-(p-toluenesulronyl)hydrazine], the “Max. % T/C L1210 Leukemia” value in the data set with L1210 leukemia came to 120 % T/C.

Take `COc1ccc(S(=O)(=O)NN(C)S(=O)(=O)Cc2ccccc2)cc1` [Compound 51]: the “Max. % T/C B16 Melanoma” value in the data set on B16 melanoma was 182 % T/C. Turning to `CN(NS(=O)(=O)c1ccc(Br)cc1)S(=O)(=O)Cc1ccccc1` [Compound 53], the “Max. % T/C B16 Melanoma” value with B16 melanoma was determined as 163 % T/C. As to `CN(NS(=O)(=O)c1ccc2ccccc2c1)S(=O)(=O)Cc1ccccc1` [Compound 54], the “Max. % T/C L1210 Leukemia” value in the data set with L1210 leukemia came to 115 % T/C.

Regarding `CN(NS(=O)(=O)Cc1ccccc1)S(=O)(=O)Cc1ccccc1` [Compound 55, N,N'-bis(benzylsulfonyl)-N-methylhydrazine], the “Max. % T/C B16 Melanoma” value in the data set on B16 melanoma came to 152 % T/C.

In the case of `CN(NS(C)(=O)=O)S(=O)(=O)Cc1ccccc1` [Compound 56], the “Max. % T/C B16 Melanoma” value in the data set with B16 melanoma was 203 % T/C. Still for that read-out and setting: the value for `CN(NS(=O)(=O)C=Cc1ccccc1)S(=O)(=O)C=Cc1ccccc1` [Compound 57] was 171 % T/C; that for `CC(=O)Nc1ccc(S(=O)(=O)N(C)NS(=O)(=O)c2ccc(Br)cc2)cc1` [Compound 58] was 164 % T/C; that for `CN(NS(C)(=O)=O)S(=O)(=O)c1ccc(I)cc1` [Compound 62] was 195 % T/C.
